The results in this text go back to patent US7101878B1 (Agouron Pharmaceuticals, Inc., priority 1998, dated 2006).

For this experiment, the target named is T1, human GnRH receptor (Homo sapiens, UniProt P30968).
T1 construct: expressed in transfected cells; host or cells: HEK 293 (hGnRH-R/293, from Dr. Stuart Sealfon)
T1 sequence (P30968 1-328): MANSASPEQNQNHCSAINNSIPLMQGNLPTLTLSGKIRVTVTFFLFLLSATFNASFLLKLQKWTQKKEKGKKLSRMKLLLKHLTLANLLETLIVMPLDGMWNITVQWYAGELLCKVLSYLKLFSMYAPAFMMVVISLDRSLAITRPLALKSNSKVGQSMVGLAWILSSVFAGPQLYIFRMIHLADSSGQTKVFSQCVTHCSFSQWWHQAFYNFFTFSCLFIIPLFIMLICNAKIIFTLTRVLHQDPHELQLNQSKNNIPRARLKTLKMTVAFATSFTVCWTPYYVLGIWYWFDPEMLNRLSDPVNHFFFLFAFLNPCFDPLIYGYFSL
The experiment in a line: Radioligand binding, 125I-GnRH-A displacement, membranes of HEK 293 cells with human GnRH receptor. Put shortly: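 Bound tracer was separated by filtration through polyethyleneimine-soaked GF/C filters and counted by liquid scintillation. IC50 from curve fitting; other species were tested under the same conditions.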

The mark [1] stands for this setting: 1 uM, read-out: % Inhib. @ 1 uM hGnRH.
Setting [2] is: 1 h, repeat of % Inhib. at 1 uM, read-out: Repeats @ 1 uM hGnRH.

Where two headings read alike, the source gives them in different places.

Regarding `Cc1ccccc1CNC(=O)c1ccc(Cc2cc3c(cc2C)C(C)(C)CCC3(C)C)o1` [drawing 1097], the inhibition at 1 µM was 84% under setting [1] and 86% under setting [2].
Take `COc1ccc(CNC(=O)c2ccc(Cc3cc4c(cc3C)C(C)(C)CCC4(C)C)o2)cc1` [drawing 1098]: the inhibition at 1 µM runs as follows: under setting [1], 89%; under setting [2], 92%.
For `Cc1cc2c(cc1Cc1ccc(C(=O)NCc3cccs3)o1)C(C)(C)CCC2(C)C` [drawing 1099] the same measures were 82% and 85%.
Take `Cc1cc2c(cc1Cc1ccc(C(=O)NCc3cccc(Cl)c3Cl)o1)C(C)(C)CCC2(C)C` [drawing 1102]: the inhibition at 1 µM came to 62% under setting [1] and 69% under setting [2].
With `Cc1cc2c(cc1Cc1ccc(C(=O)NCc3ccccc3Cl)o1)C(C)(C)CCC2(C)C` [drawing 1103], the inhibition at 1 µM was found to be 77% under setting [1] and 84% under setting [2].
The corresponding values for `Cc1cc2c(cc1Cc1ccc(C(=O)NCCc3ccccc3Cl)o1)C(C)(C)CCC2(C)C` [drawing 1104] are 55% and 63%.
For `Cc1cc2c(cc1Cc1ccc(C(=O)N(CCCO)Cc3ccccn3)o1)C(C)(C)CCC2(C)C` [drawing 1107] the same measures were -4% and 0%.
The corresponding values for `COc1ccccc1CCNC(=O)c1ccc(Cc2cc3c(cc2C)C(C)(C)CCC3(C)C)o1` [drawing 1114] are 61% and 70%.
For the molecule `Cc1cc2c(cc1Cc1ccc(C(=O)NC(CO)Cc3ccccc3)o1)C(C)(C)CCC2(C)C` (stereo not drawn) [drawing 1117], the “% Inhib. @ 1 uM hGnRH” value (1 uM) is given as 72%. Further, the “Repeats @ 1 uM hGnRH” value (repeat of % Inhib. at 1 uM) is 72.
`Cc1cc2c(cc1Cc1ccc(C(=O)NCc3cccc4ccccc34)o1)C(C)(C)CCC2(C)C` [drawing 1120]: the inhibition at 1 µM worked out at 61% under setting [1] and 71% under setting [2].
Consider `Cc1cc2c(cc1Cc1ccc(C(=O)N3CCN(c4ccccc4)CC3)o1)C(C)(C)CCC2(C)C` [drawing 1121], for which the “% Inhib. @ 1 uM hGnRH” value (1 uM) is given as −6%. Further, the “Repeats @ 1 uM hGnRH” value (repeat of % Inhib. at 1 uM) was determined as 6.
Consider `Cc1cc2c(cc1Cc1ccc(C(=O)N3CCN(c4ncccn4)CC3)o1)C(C)(C)CCC2(C)C` [drawing 1124], for which the inhibition at 1 µM is -2% under setting [1] and 3% under setting [2].
For `Cc1cc2c(cc1Cc1ccc(C(=O)NC3CCCc4ccccc43)o1)C(C)(C)CCC2(C)C` (stereo not drawn) [drawing 1127] the same measures were 14% and 27%.
The corresponding values for `Cc1cc2c(cc1Cc1ccc(C(=O)NC3CCc4ccccc43)o1)C(C)(C)CCC2(C)C` (stereo not drawn) [drawing 1129] are 38% and 45%.
Consider `Cc1cc2c(cc1Cc1ccc(C(=O)NC(C)CCc3ccccc3)o1)C(C)(C)CCC2(C)C` (stereo not drawn) [drawing 1130], for which the inhibition at 1 µM runs as follows: under setting [1], 52%; under setting [2], 52%.
Turning to `Cc1cc2c(cc1Cc1ccc(C(=O)NCCCN3CCCC3=O)o1)C(C)(C)CCC2(C)C` [drawing 1131], the inhibition at 1 µM under setting [1] came out at 68% and the inhibition at 1 µM under setting [2] was found to be 71%.
For `Cc1cc2c(cc1Cc1ccc(C(=O)NCc3ccc(Cl)cc3Cl)o1)C(C)(C)CCC2(C)C` [drawing 1133] the same measures were 53% and 64%.
For `Cc1cc2c(cc1Cc1ccc(C(=O)NCc3ccc(F)cc3)o1)C(C)(C)CCC2(C)C` [drawing 1135] the same measures were 69% and 71%.
The corresponding values for `Cc1cc2c(cc1Cc1ccc(C(=O)NCc3cccc(Cl)c3)o1)C(C)(C)CCC2(C)C` [drawing 1136] are 78% and 84%.
On to `Cc1cc2c(cc1Cc1ccc(C(=O)NC(CO)Cc3ccccc3)o1)C(C)(C)CCC2(C)C` (stereo not drawn) [drawing 1137], for which, where the note is “1 uM”, the “% Inhib. @ 1 uM hGnRH” value came out at 17%. The “Repeats @ 1 uM hGnRH” value (repeat of % Inhib. at 1 uM) is listed as 20.
`Cc1cc2c(cc1Cc1ccc(C(=O)NC(C)c3ccccc3)o1)C(C)(C)CCC2(C)C` (stereo not drawn) [drawing 1138]: the inhibition at 1 µM by setting is: under setting [1], 53%; under setting [2], 58%.
The corresponding values for `Cc1cc2c(cc1Cc1ccc(C(=O)NCc3ccc(C(C)(C)C)cc3)o1)C(C)(C)CCC2(C)C` [drawing 1140] are -14% and -6%.
Take `COc1cccc(CCNC(=O)c2ccc(Cc3cc4c(cc3C)C(C)(C)CCC4(C)C)o2)c1OC` [drawing 1147]: the inhibition at 1 µM came to 58% under setting [1] and 63% under setting [2].
The corresponding values for `COc1cc(CCNC(=O)c2ccc(Cc3cc4c(cc3C)C(C)(C)CCC4(C)C)o2)cc(OC)c1` [drawing 1148] are 44% and 48%.
The corresponding values for `Cc1cc2c(cc1Cc1ccc(C(=O)NC3CC3)o1)C(C)(C)CCC2(C)C` [drawing 1149] are 49% and 58%.
For the molecule `Cc1cc2c(cc1Cc1ccc(C(=O)NC3CCCc4ccccc43)o1)C(C)(C)CCC2(C)C` (stereo not drawn) [drawing 1150], for the setting “1 uM”, the “% Inhib. @ 1 uM hGnRH” value was 16%. Besides, under “repeat of % Inhib. at 1 uM”, the “Repeats @ 1 uM hGnRH” value was 32.
Consider `COCCNC(=O)c1ccc(Cc2cc3c(cc2C)C(C)(C)CCC3(C)C)o1` [drawing 1155], for which the inhibition at 1 µM under setting [1] was found to be 55% and the inhibition at 1 µM under setting [2] stood at 61%.
The corresponding values for `Cc1cc2c(cc1Cc1ccc(C(=O)NCCc3ccc(Br)cc3)o1)C(C)(C)CCC2(C)C` [drawing 1171] are 16% and 24%.
The corresponding values for `COc1ccc(CCNC(=O)c2ccc(Cc3cc4c(cc3C)C(C)(C)CCC4(C)C)o2)cc1` [drawing 1173] are 42% and 53%.
The corresponding values for `Cc1cccc(CNC(=O)c2ccc(Cc3cc4c(cc3C)C(C)(C)CCC4(C)C)o2)c1` [drawing 1174] are 93% and 95%.
On to `Cc1ccc(CNC(=O)c2ccc(Cc3cc4c(cc3C)C(C)(C)CCC4(C)C)o2)cc1` [drawing 1175], for which the inhibition at 1 µM was found to be 87% under setting [1] and 90% under setting [2].
For `Cc1cc2c(cc1Cc1ccc(C(=O)NCCO)o1)C(C)(C)CCC2(C)C` [drawing 1178] the same measures were 1% and 1%.
The corresponding values for `Cc1cc2c(cc1Cc1ccc(C(=O)NCCC#N)o1)C(C)(C)CCC2(C)C` [drawing 1179] are 42% and 44%.
The corresponding values for `Cc1cc2c(cc1Cc1ccc(C(=O)NCCc3cccc(F)c3)o1)C(C)(C)CCC2(C)C` [drawing 1181] are 59% and 62%.
In the case of `Cc1cc2c(cc1Cc1ccc(C(=O)NCCOc3ccccc3)o1)C(C)(C)CCC2(C)C` [drawing 1182], the inhibition at 1 µM runs as follows: under setting [1], 93%; under setting [2], 95%.
As to `COc1cccc(CNC(=O)c2ccc(Cc3cc4c(cc3C)C(C)(C)CCC4(C)C)o2)c1` [drawing 1188], the inhibition at 1 µM under setting [1] was 76% and the inhibition at 1 µM under setting [2] came out at 79%.
On to `Cc1cc2c(cc1Cc1ccc(C(=O)NCc3cccc(-c4ccccc4)c3)o1)C(C)(C)CCC2(C)C` [drawing 1190], for which the inhibition at 1 µM by setting is: under setting [1], -10%; under setting [2], -6%.
As to `Cc1ccc(CNC(=O)c2ccc(Cc3cc4c(cc3C)C(C)(C)CCC4(C)C)o2)cc1C` [drawing 1191], the inhibition at 1 µM is, setting by setting: under setting [1], 77%; under setting [2], 79%.
Regarding `Cc1cc2c(cc1Cc1ccc(C(=O)NCc3cccc(C)c3C)o1)C(C)(C)CCC2(C)C` [drawing 1192], the inhibition at 1 µM is, setting by setting: under setting [1], 81%; under setting [2], 85%.
For `Cc1ccc(CCNC(=O)c2ccc(Cc3cc4c(cc3C)C(C)(C)CCC4(C)C)o2)cc1` [drawing 1193] the same measures were 48% and 52%.
For `Cc1cc2c(cc1Cc1ccc(C(=O)NCc3cccc(F)c3)o1)C(C)(C)CCC2(C)C` [drawing 1195] the same measures were 81% and 82%.
For `Cc1cc2c(cc1Cc1ccc(C(=O)NCC(O)c3ccccc3)o1)C(C)(C)CCC2(C)C` (stereo not drawn) [drawing 1196] the same measures were 68% and 69%.
As for `Cc1cc2c(cc1Cc1ccc(C(=O)NCc3ccc(F)cc3F)o1)C(C)(C)CCC2(C)C` [drawing 1197], the inhibition at 1 µM is 74% under setting [1] and 81% under setting [2].
The corresponding values for `Cc1cc2c(cc1Cc1ccc(C(=O)NCCc3ccc(F)cc3)o1)C(C)(C)CCC2(C)C` [drawing 1198] are 45% and 45%.
The corresponding values for `Cc1cc2c(cc1Cc1ccc(C(=O)NC(CO)CC3CCCCC3)o1)C(C)(C)CCC2(C)C` (stereo not drawn) [drawing 1215] are 10% and 2%.
The corresponding values for `Cc1cc2c(cc1Cc1ccc(C(=O)NCc3ccc(N(C)C)cc3)o1)C(C)(C)CCC2(C)C` [drawing 1220] are 78% and 85%.
On to `COc1cc(CNC(=O)c2ccc(Cc3cc4c(cc3C)C(C)(C)CCC4(C)C)o2)ccc1O` [drawing 1222], for which the inhibition at 1 µM is 54% under setting [1] and 54% under setting [2].
Take `Cc1cc2c(cc1Cc1ccc(C(=O)NCc3ccccc3Br)o1)C(C)(C)CCC2(C)C` [drawing 1223]: the inhibition at 1 µM is 57% under setting [1] and 60% under setting [2].
